{"source": "patent US8822533B1", "about": "“Methods and compositions for repelling and/or killing insects” (The United States of America, as represented by the …, priority 2011, dated 2014)", "key": {"Ae. aegypti mosquitoes": {"test_system": "Ae. aegypti mosquitoes", "experiment": "Sleeve bite protection assay on treated uniform fabric, mosquitoes", "format": "in vivo, Aedes aegypti (Orlando, 1952)", "description": "Biological Evaluation: Bite protection assays were conducted with laboratory-reared 7-12 day old mosquitoes or sand flies. The species used throughout these studies are Aedes aegypti (Orlando, 1952) and Phlebotomus papatasi sand flies (Jerusalem, 1983). Females were pre-selected using either a hand draw box or a mechanical aspirator. An assay was conducted by wearing sewn sleeves made from clothing material. Treated specimens were assayed with untreated controls to correct for the bite resistance afforded by material construction and composition. The untreated control was tested at the beginning of the experiment, followed by successively higher candidate repellent concentrations on sleeves. Sleeves were sewn from a cut out single ply trapezoidal pattern (33.2 cm×21 cm×25.5 cm height) of material. […] Permethrin was 35:65cis: trans, 95.85% technical material. Experimental repellents were received as neat samples with <5% impurities. The treatment occurred by dissolution of repellent in suitable quantity of acetone to saturate the clothing, but minimizing excess solution. Excess solution was quantified and this amount of excess was then used to calculate the estimated amount of repellent applied to the material. […] The photoperiod was 12:12. The mosquito cages were approximately 60000 cm^3 and each contained 175 to 225 female mosquitoes. […] Cages for sand fly work were slightly smaller (15000 cm^3) and constructed of acrylic for filming purposes and with screens on the exterior edges to allow air flow through the system. About 20-40 sand flies were released in cages for each assay. Assays started when the sleeved arm was inserted through the sleeve into the cage. Normally the hand was protected by a glove, but there were situations (i.e. sand fly data presented here) when the ability of a repellent to protect the untreated hand was determined. The assay periods were 15 min for the mosquitoes and 25-30 minutes for sand flies. The insects were allowed to land, probe and possibly bloodfeed during this time. At the conclusion of the experiment, all insects were knocked down or aspirated and the percentage that bloodfed of the total female test population in the cage was recorded. The protect level was calculated by Abbott's formula as a percentage reduction in bites compared to the untreated fabric control sleeve. Specific conditions for bioassays are noted with corresponding data contained in the Tables."}, "[1]": {"test_system": "Mosquitoes, either Aedes aegypti (Liverpool) or Anopheles stephensi Liston", "experiment": "K&D module in vitro bioassay: biting protection, knockdown and mortality", "format": "in vivo", "description": "In vitro bioassays were conducted as described by Klun et. al. (Klun, J. A., et al., J. Med. Entomol., 40: 293-299 (2005)). Each test replicate consisted of 3 treatments: a control (EtOH); a standard (Deet, 4.54 nmol/μl); and an experimental compound (pyrethroid analogs, 4.54 nmol/ul). The 3 treatments were randomly assigned to consecutive cells in 2, 6-cell reservoirs connected in series to a single water-bath pump; thus, 4 replicates could be tested/run. Tests were performed in an Air Science USA hood, with an air movement velocity of approx. 110-120 ft./min., temperature of 25-27° C., and RH of 15-25%. A 6-celled reservoir was connected to and heated by a constant-temperature (38° C.) water circulator (Lauda E100, Wobser GMGH and Co., Konigshofell, Germany).\nPrior to each test, the upper surface of each reservoir was coated with a thin layer of high-vacuum silicone grease (Dow Corning Corp., Midland, Mich.), and the cells then filled (approx. 6 ml. capacity) or topped-off with either: (1) expired human red blood cells suspended in citrate-phosphate-dextrose-adenine (CPDA) solution, not more than 1 month past expiration date, and to which 110 mg ATP/35 ml. blood-CPDA had been added on the day of testing; or (2) CPDA+ATP×^−3, usually made up or diluted to 10^−3 ATP on the day of testing. The filled cells were then covered with an Edicol collagen membrane (Devro, Sandy Run, S.C.) strip, and then with a just-treated (110 μl of 4.54 nmol/μl treatment or control solution) organdy cloth (G Street Fabrics, Rockville, Md.) strip. Mosquitoes used in tests were either Aedes aegypti_(Liverpool) or Anopheles stephensi_Liston. K&D modules containing 5 adult females/cell were placed over a Teflon separator atop each reservoir; the sliding floors opened allowing access to the treated organdy cloth and membrane-covered cell; and the number of mosquitoes biting (proboscis inserted through the cloth) and/or observed to be engorged within each cell at the end of a 3-5 min. exposure period was recorded. Mosquitoes were used only once in a test, and then frozen and discarded.\nOnly tests in which 3 or more females fed in the control cell were analyzed, as lower feeding rates are indicative of substandard feeding readiness of that group of mosquitoes.\n[…] Data were collected to record knockdown in 6 minutes, one hour and 24 hours post exposure."}, "[2]": {"test_system": "bed bugs (Cimex lectularius)", "experiment": "Bed bug mortality on treated filter paper", "format": "in vivo", "conditions": "Cimex lectularius, 24 h", "description": "Knockdown data and mortality for volatile pyrethroids against bed bugs (Cimex lectularius): Compounds were dissolved in acetone to yield concentrations of 100 μg/cm^2, 10 μg/cm^2, and 1 μg/cm^2 and 47 mm filter paper disks were treated. Acetone-treated filter paper was used as a negative control. Mixed stages (nymphs and adults) of a laboratory colony of the bed bug Cimex lectularius were placed on the treated filter paper in glass Petri dishes and mortality was recorded 24 h later, at which time bed bugs were removed to untreated surfaces. 24 h after this transfer another assessment of mortality was made to see if any dead or moribund bugs had recovered."}, "[3]": {"test_system": "bed bugs (Cimex lectularius)", "experiment": "Bed bug mortality on treated filter paper", "format": "in vivo", "conditions": "24 h"}, "[4]": {"conditions": "ACU sleeve, stored one year then tested, concentrations as E1"}}, "data": [{"smiles": "CC(C)=C[C@@H]1[C@@H](C(=O)OCc2c(F)c(F)cc(F)c2F)C1(C)C", "note": "[TL-I-107]", "values": [{"measurement": "Blood-fed #", "setting": "Ae. aegypti mosquitoes; ACU (50/50 NYCO) sleeve, glove on hand, 15 min, permethrin 0.118, transfluthrin 0.108, TL-I-107 0.107, TL-I-141 0.109, TL-I-105 0.107, TL-I-73 0.102 mg/cm^2", "result": "0 #"}, {"measurement": "Bite Protection (%)", "setting": "Ae. aegypti mosquitoes; ACU (50/50 NYCO) sleeve, glove on hand, Abbott's formula vs untreated sleeve, concentrations as E1", "result": 100, "unit": "%"}, {"measurement": "Fed (%)", "setting": "Ae. aegypti mosquitoes; ACU (50/50 NYCO) sleeve, glove on hand, concentrations as E1", "result": 0.0, "unit": "%"}, {"measurement": "Bite Protection (%)", "setting": "Ae. aegypti mosquitoes; [4]", "result": 100, "unit": "%"}, {"measurement": "Fed (%)", "setting": "Ae. aegypti mosquitoes; [4]", "result": 0.0, "unit": "%"}, {"measurement": "Blood-fed #", "setting": "Ae. aegypti mosquitoes; ACU sleeve, treated specimens stored in refrigerator for one year then tested, concentrations as E1", "result": "0 #"}, {"measurement": "Knockdown 6 min (%)", "setting": "[1]; 2.5 nM\\cm^2, K&D module", "result": 100, "unit": "%"}, {"measurement": "Knockdown 24 hours (%)", "setting": "[1]; 2.5 nM\\cm^2, K&D module", "result": 100, "unit": "%"}, {"measurement": "Not feeding 3 minutes (%)", "setting": "[1]; 2.5 nM\\cm^2, K&D module", "result": 100, "unit": "%"}, {"measurement": "Knockdown 1 hour (%)", "setting": "[1]; 2.5 nmol/cm^2, K&D module", "result": 100, "unit": "%"}, {"measurement": "Knockdown 6 min (%)", "setting": "[1]; 25 nM\\cm^2, K&D module", "result": 100, "unit": "%"}, {"measurement": "Knockdown 24 hours (%)", "setting": "[1]; 25 nM\\cm^2, K&D module", "result": 100, "unit": "%"}, {"measurement": "Not feeding 3 minutes (%)", "setting": "[1]; 25 nM\\cm^2, K&D module", "result": 100, "unit": "%"}, {"measurement": "Knockdown 1 hour (%)", "setting": "[1]; 25 nmol/cm^2, K&D module", "result": 100, "unit": "%"}, {"measurement": "mortality at 0.0025 µM", "setting": "[1]; Aedes aegypti, 24 h", "result": 100, "unit": "%"}, {"measurement": "mortality at 0.025 µM", "setting": "[1]; Aedes aegypti, 48 h", "result": 100, "unit": "%"}, {"measurement": "mortality at 1 µg/cm2", "setting": "[2]", "result": 0, "unit": "%"}, {"measurement": "mortality at 10 µg/cm2", "setting": "[2]", "result": 100, "unit": "%"}, {"measurement": "mortality at 100 µg/cm2", "setting": "[2]", "result": 100, "unit": "%"}, {"measurement": "mortality at 5 µg/cm2", "setting": "[3]", "result": 100, "unit": "%"}]}]}
